Laboratory results published in patent publication US8975415B2, “Chromane compounds” (CoMentis, Inc., priority 2012, dated 2015).
Read-outs that look alike come from different tables or passages of the source.

Key:
hERG potassium channel = hERG potassium channel (Homo sapiens (Human), UniProt Q12809); experiment: hERG inhibition, automated planar patch-clamp in hERG-expressing CHO cells; details: for selectivity ratio: human, CHO-K1 cells stably expressing hERG, pH 7.4
BACE1 [1] = molecular target: T1, BACE1 (Homo sapiens (Human), UniProt P56817); experiment: Measurement of BACE1 inhibition by fluorescence resonance energy transfer (FRET), MCA substrate; details: for IC50: read-out: Test Example 1 IC50, MCA-SEVNLDAEFK(DNP)-NH2 substrate, pH 4.4
Target sequence in this assay (P56817 75-416): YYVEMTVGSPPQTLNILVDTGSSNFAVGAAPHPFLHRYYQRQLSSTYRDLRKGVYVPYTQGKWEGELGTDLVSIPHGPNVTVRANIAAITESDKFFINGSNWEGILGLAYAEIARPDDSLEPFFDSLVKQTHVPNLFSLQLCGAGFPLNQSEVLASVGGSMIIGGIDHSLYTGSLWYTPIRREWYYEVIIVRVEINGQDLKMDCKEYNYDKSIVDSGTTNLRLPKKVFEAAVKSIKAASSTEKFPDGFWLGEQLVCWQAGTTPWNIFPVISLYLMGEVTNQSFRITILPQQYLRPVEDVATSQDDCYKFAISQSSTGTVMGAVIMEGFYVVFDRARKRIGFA

BACE1 [2] = molecular target: T1, BACE1; experiment: Measurement of Aβ production inhibition in cell (SK-N-BE(2) neuroblastoma cells, Aβ40 ELISA); details: SK-N-BE(2) cells, 6 hours
Target sequence in this assay (P56817 46-501): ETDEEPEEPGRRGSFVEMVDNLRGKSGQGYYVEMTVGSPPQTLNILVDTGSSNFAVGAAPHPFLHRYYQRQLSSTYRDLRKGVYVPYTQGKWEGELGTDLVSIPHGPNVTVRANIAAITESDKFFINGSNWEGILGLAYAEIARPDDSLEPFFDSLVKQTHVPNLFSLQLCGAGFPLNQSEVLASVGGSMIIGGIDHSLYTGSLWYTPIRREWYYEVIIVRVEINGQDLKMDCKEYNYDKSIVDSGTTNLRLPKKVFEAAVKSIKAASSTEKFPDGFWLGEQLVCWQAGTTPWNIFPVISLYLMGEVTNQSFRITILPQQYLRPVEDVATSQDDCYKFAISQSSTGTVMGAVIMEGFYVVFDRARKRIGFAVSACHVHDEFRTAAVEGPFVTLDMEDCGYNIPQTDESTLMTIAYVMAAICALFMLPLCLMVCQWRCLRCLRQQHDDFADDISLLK

[3] = read-out: Test Example 5 hERG IC50, whole-cell patch clamp, room temperature
[4] = read-out: Test Example 1 BACE1 MCA Ki, FRET, MCA substrate
[5] = Test Example 3 IC50, Aβ40 production
[6] = read-out: Test Example 3 IC50, Aβ40 production

Sequence of hERG potassium channel (Q12809 whole entry): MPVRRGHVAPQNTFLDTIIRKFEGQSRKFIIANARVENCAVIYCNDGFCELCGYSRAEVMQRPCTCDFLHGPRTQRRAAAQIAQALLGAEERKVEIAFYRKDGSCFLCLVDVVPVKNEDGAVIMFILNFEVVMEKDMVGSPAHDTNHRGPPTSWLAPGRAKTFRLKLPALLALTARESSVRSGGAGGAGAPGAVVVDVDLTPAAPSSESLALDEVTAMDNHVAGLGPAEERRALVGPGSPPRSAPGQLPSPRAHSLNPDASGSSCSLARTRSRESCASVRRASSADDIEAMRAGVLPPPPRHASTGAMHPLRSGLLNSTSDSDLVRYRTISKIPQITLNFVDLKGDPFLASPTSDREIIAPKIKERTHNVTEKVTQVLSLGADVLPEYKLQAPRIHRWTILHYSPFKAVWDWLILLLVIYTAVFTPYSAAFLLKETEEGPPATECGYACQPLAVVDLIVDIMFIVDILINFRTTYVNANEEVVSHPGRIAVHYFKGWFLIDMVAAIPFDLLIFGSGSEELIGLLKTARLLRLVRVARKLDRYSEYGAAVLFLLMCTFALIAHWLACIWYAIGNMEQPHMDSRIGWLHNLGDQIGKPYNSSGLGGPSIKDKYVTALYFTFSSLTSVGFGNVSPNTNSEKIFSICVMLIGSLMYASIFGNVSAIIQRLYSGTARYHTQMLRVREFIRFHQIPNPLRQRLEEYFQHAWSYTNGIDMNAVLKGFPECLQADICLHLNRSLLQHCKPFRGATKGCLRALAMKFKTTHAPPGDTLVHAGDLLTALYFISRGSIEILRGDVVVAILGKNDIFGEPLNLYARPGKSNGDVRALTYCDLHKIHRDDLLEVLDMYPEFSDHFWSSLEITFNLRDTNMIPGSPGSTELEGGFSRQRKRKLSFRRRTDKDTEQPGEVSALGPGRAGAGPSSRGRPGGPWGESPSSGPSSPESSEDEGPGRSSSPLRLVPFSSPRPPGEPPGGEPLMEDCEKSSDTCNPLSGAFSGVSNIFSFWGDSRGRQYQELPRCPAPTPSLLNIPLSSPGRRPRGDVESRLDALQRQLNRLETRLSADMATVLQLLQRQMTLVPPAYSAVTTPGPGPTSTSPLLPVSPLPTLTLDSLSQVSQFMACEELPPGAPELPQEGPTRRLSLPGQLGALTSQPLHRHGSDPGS

Row | SMILES | IC50 (BACE1 [1]; FRET) [µM] | IC50 (BACE1 [2]; [5]) [µM] | other results
1 | NC1=NC2(CO1)c1cc(-c3cncnc3)ccc1OCC21CCC1 (centres unmarked) [RP 101] | 7.65 | – | IC50 (hERG potassium channel; [3]): 5.28 µM
2 | Cc1cnc(F)c(-c2ccc3c(c2)C2(COC(N)=N2)C2(COC2)C2(CCC2)O3)c1 (centres unmarked) [RP 116, 6′-(2-fluoro-5-methylpyridin-3-yl)trispiro[cyclobutane-1,2′-chromene-4′,4″-[1,3]oxazole-3′,3′″-oxetan]-2″-amine] | – | – | IC50 (hERG potassium channel; [3]): > 10 µM
3 | Cc1cnc(C(=O)Nc2ccc3c(c2)C2(COC(N)=N2)CC(C)(C)C3)cn1 (racemic) [WO2011/123674 Example 98, reference compound] | – | – | IC50 (hERG potassium channel): 9.46 µM; selectivity ratio (hERG potassium channel): 2.3; Ki (BACE1 [1]): 4.09 µM
4 | NC1=NC2(CO1)c1cc(Br)ccc1OC(CC1CC1)C21COC1 (single isomer, unassigned) [RP 16a] | 9.54 | – | IC50 (hERG potassium channel; [3]): > 10 µM
5 | CC(C)CC1Oc2ccc(-c3cncnc3)cc2C2(COC(N)=N2)C12COC2 (centres unmarked) [RP 90] | 0.901 | – | IC50 (hERG potassium channel; [3]): > 10 µM
6 | N#Cc1cnc(C(=O)Nc2ccc3c(c2)C2(COC(N)=N2)C2(CC2)CO3)c(Cl)c1 (centres unmarked) [RP 192] | 0.318 | – | IC50 (hERG potassium channel; [3]): > 10 µM; Ki (BACE1 [1]; [4]): 0.28 µM
7 | Cc1cnnc(-c2ccc3c(c2)C2(COC(N)=N2)C2(COC2)C2(CCC2)O3)c1 (centres unmarked) [RP 76] | 13.4 | – | IC50 (hERG potassium channel; [3]): > 10 µM
8 | N#C/C=C/c1cccc(-c2ccc3c(c2)C2(COC(N)=N2)C2(COC2)C2(CCC2)O3)c1 (centres unmarked) [RP 132] | 2.45 | 1.2 | –
9 | CC1(C)Oc2ccc(-c3cccnc3F)cc2C2(COC(N)=N2)C12COC2 (centres unmarked) [RP 82] | 0.348 | 0.036 | –
10 | NC1=NC2(CO1)c1cc(Nc3ncccc3Cl)ccc1OC1(CCC1)C21COC1 (centres unmarked) [RP 44] | 0.602 | 0.098 | –
11 | Cc1cc(C#N)cnc1C(=O)Nc1ccc2c(c1)C1(COC(N)=N1)C1(CC1)CO2 (centres unmarked) [RP 191] | – | – | IC50 (hERG potassium channel; [3]): > 10 µM
12 | C[C@H]1Oc2ccc(-c3cccnc3F)cc2[C@@]2(COC(N)=N2)C12COC2 (racemic) [RP 77] | – | – | IC50 (hERG potassium channel): > 10 µM
13 | CCOc1cccc(-c2ccc3c(c2)C2(COC(N)=N2)C2(COC2)C2(CCC2)O3)c1 (centres unmarked) [RP 131] | 2.02 | 3.2 | –
14 | NC1=NC2(CO1)c1cc(C3=CCCCC3)ccc1OC1(CCC1)C21COC1 (centres unmarked) [RP 135] | 3.27 | 1.8 | –
15 | CC1(C)Oc2ccc(-c3cncnc3)cc2C2(COC(N)=N2)C12COC2 (single isomer, unassigned) [RP 51b, 2′,2′-dimethyl-6′-(pyrimidin-5-yl)dispiro[1,3-oxazole-4,4′-chromene-3′,3″-oxetan]-2-amine] | 0.172 | 0.072 | Ki (BACE1 [1]; [4]): 0.137 µM
16 | NC1=NC2(CO1)c1cc(-c3cncc(F)c3)ccc1OC1(CCC1)C21COC1 (centres unmarked) [RP 70] | 1.75 | 0.96 | –
17 | NC1=NC2(c3cc(-c4cncnc4)ccc3OCC23CC3)C(F)(F)CO1 (centres unmarked) [RP 206] | 4.91 | > 30 | –
18 | CC1(C)Oc2ccc(-c3cc(F)cnc3Cl)cc2C2(COC(N)=N2)C12COC2 (centres unmarked) [RP 153] | 1.13 | 0.13 | –
19 | NC1=NC2(CO1)c1cc(-c3cncc(OC(F)F)c3)ccc1OCC21CC1 (centres unmarked) [RP 60] | 1.48 | 0.16 | –

Row | SMILES | IC50 (BACE1 [1]; FRET) [µM] | IC50 (BACE1 [2]; [5]) [µM] | other results
20 | CC1(C)Oc2ccc(-c3cc(F)ncc3Cl)cc2C2(COC(N)=N2)C12COC2 (centres unmarked) [RP 158] | 0.93 | 0.37 | –
21 | NC1=NC2(CO1)c1cc(-c3cccc(F)c3F)ccc1OC1(CCC1)C21COC1 (centres unmarked) [RP 138] | 1.67 | 1.5 | –
22 | COCC#Cc1cncc(-c2ccc3c(c2)C2(COC(N)=N2)C2(COC2)CO3)c1 (centres unmarked) [RP 19, 6′-[5-(3-methoxyprop-1-yn-1-yl)pyridin-3-yl]dispiro[1,3-oxazole-4,4′-chromene-3′,3″-oxetan]-2-amine] | 2.31 | 0.43 | –
23 | CC1(C)Oc2ccc(NC(=O)c3ccc(F)cn3)cc2C2(COC(N)=N2)C12COC2 (centres unmarked) [Example 28] | – | – | IC50 (BACE1 [2]; [6]): 0.019 µM; Ki (BACE1 [1]; [4]): 0.117 µM
24 | NC1=NC2(CO1)c1cc(-c3cncc(Cl)c3)ccc1OCC21CC1 (centres unmarked) [RP 107] | 1.06 | 0.46 | –
25 | C[C@@H]1Oc2ccc(-c3cccnc3F)cc2[C@@]2(COC(N)=N2)C12COC2 (racemic) [RP 79] | – | – | IC50 (hERG potassium channel; [3]): > 10 µM
26 | NC1=NC2(CO1)c1cc(-c3cncc(C#CC4CC4)c3)ccc1OC1(CCC1)C21COC1 (centres unmarked) [RP 48, 6′-[5-(cyclopropylethynyl)pyridin-3-yl]trispiro[cyclobutane-1,2′ chromene-4′,4″-[1,3]oxazole-3′,3′″-oxetan]-2″-amine] | 1.13 | 0.69 | –
27 | Cc1cc(-c2ccc3c(c2)C2(COC(N)=N2)C2(COC2)C(C)(C)O3)cnc1F (centres unmarked) [RP 157] | 2.8 | 0.66 | –
28 | NC1=NC2(CO1)c1cc(-c3cncc(OCC(F)(F)F)c3)ccc1OCC21CC1 (centres unmarked) [RP 58] | 1.48 | 0.18 | –
29 | CC#Cc1cncc(-c2ccc3c(c2)C2(COC(N)=N2)C2(CCC2)CO3)c1 (centres unmarked) [RP 113] | 1.11 | 0.47 | –
30 | CC#Cc1cncc(-c2ccc3c(c2)C2(COC(N)=N2)C2(COC2)C(CCC(F)(F)F)O3)c1 (centres unmarked) [RP 96] | 0.126 | 0.022 | Ki (BACE1 [1]; [4]): 0.868 µM
31 | N#Cc1ccc(C(=O)Nc2ccc3c(c2)C2(COC(N)=N2)C2(CC2)CO3)nc1 (centres unmarked) [RP 196] | 0.38 | 0.053 | Ki (BACE1 [1]; [4]): 0.342 µM
32 | CC1(C)Oc2ccc(-c3cccnc3Cl)cc2C2(COC(N)=N2)C12COC2 (centres unmarked) [RP 156] | 2.61 | 0.18 | –
33 | CC1(C)Cc2ccc(NC(=O)c3ccc(Cl)cn3)cc2C2(COC(N)=N2)C1 (racemic) [WO2011/123674 Example 89, reference compound] | – | – | IC50 (hERG potassium channel): 0.44 µM; selectivity ratio (hERG potassium channel): 1.8; Ki (BACE1 [1]): 0.241 µM
34 | CC1(C)Oc2ccc(-c3cncnc3)cc2C2(COC(N)=N2)C12COC2 (centres unmarked) [RP 69] | 0.397 | 0.04 | –
35 | CCOc1cc(F)cc(-c2ccc3c(c2)C2(COC(N)=N2)C2(COC2)C2(CCC2)O3)c1 (centres unmarked) [RP 133] | 1.67 | 2.8 | –
36 | COc1cnc(C(=O)Nc2ccc3c(c2)C2(COC(N)=N2)C2(COC2)C(C)(C)O3)cn1 (centres unmarked) [Example 227] | – | – | IC50 (hERG potassium channel; [3]): > 10 µM
37 | NC1=NC2(CO1)c1cc(-c3cncnc3)ccc1OCC21CCCO1 (centres unmarked) [RP 97] | 20.2 | 2.6 | –
38 | N#Cc1ncccc1-c1ccc2c(c1)C1(COC(N)=N1)C1(COC1)C1(CCC1)O2 (centres unmarked) [RP 115, 3-(2″-aminotrispiro[cyclobutane-1,2′-chromene-4′,4″-[1,3]oxazole-3′,3′″-oxetan]-6′-yl)pyridine-2-carbonitrile] | 3.31 | 1.1 | –

Row | SMILES | IC50 (BACE1 [1]; FRET) [µM] | IC50 (BACE1 [2]; [5]) [µM] | other results
39 | COc1ccc(F)c(-c2ccc3c(c2)C2(COC(N)=N2)C2(COC2)CO3)c1 (centres unmarked) [RP 33] | 1.52 | 0.95 | –
40 | NC1=NC2(CO1)c1cc(-c3cccc(F)c3)ccc1OC1(CCC1)C21COC1 (centres unmarked) [RP 125] | 2.31 | 0.58 | –
41 | NC1=NC2(CO1)c1cc(-c3cncnc3)ccc1OCC21COC1 (centres unmarked) [RP 36] | 2.9 | 0.81 | –
42 | CC1(C)Oc2ccc(NC(=O)c3ncc(Cl)cc3F)cc2C2(COC(N)=N2)C12COC2 (centres unmarked) [Example 30] | – | – | IC50 (BACE1 [2]; [6]): 0.0023 µM; Ki (BACE1 [1]; [4]): 0.0515 µM
43 | CCOc1cc(-c2ccc3c(c2)C2(COC(N)=N2)C2(COC2)C2(CCC2)O3)cc(C(F)(F)F)c1 (centres unmarked) [RP 129] | 2.21 | 7.3 | –
44 | CC1(C)Oc2ccc(-c3cccc(Cl)c3)cc2C2(COC(N)=N2)C12COC2 (centres unmarked) [RP 139] | 0.252 | 0.14 | Ki (BACE1 [1]; [4]): 0.215 µM
45 | COc1cc(-c2ccc3c(c2)C2(COC(N)=N2)C2(COC2)C2(CCC2)O3)c(F)cn1 (centres unmarked) [RP 122] | 2.74 | 1.1 | –
46 | COc1cccc(-c2ccc3c(c2)C2(COC(N)=N2)C2(COC2)C(C)(C)O3)c1 (centres unmarked) [RP 142] | 0.401 | 0.15 | –
47 | CC1(C)Oc2ccc(-c3cccc(C4CC4)c3)cc2C2(COC(N)=N2)C12COC2 (centres unmarked) [RP 140] | 0.389 | 0.41 | –
48 | NC1=NC2(CO1)c1cc(NC(=O)c3ncc(Br)cn3)ccc1OCC21CC1 (centres unmarked) [RP 189] | 0.661 | 0.043 | Ki (BACE1 [1]; [4]): 0.623 µM
49 | CCC1Oc2ccc(-c3cncnc3)cc2C2(COC(N)=N2)C12COC2 (centres unmarked) [RP 87] | 1.55 | 0.43 | –
50 | NC1=NC2(CO1)c1cc(NC(=O)c3ccc(F)cn3)ccc1OCC21CC1 (centres unmarked) [RP 31, N-(2″-aminodispiro[cyclopropane-1,3′-chromene-4′,4″-[1,3]oxazol]-6′-yl)-5-fluoropyridine-2-carboxamide] | 1.06 | 0.061 | Ki (BACE1 [1]; [4]): 1.03 µM
51 | NC1=NC2(CS1)c1cc(Br)ccc1OCC21COC1 (centres unmarked) [RP 41, 6′-bromodispiro[oxetane-3,3′-chromene-4′,4″-[1,3]thiazol]-2″-amine] | 24.8 | > 30 | –
52 | CC#Cc1cncc(-c2ccc3c(c2)C2(COC(N)=N2)C2(COC2)C(CC2CC2)O3)c1 (centres unmarked) [RP 205] | 0.126 | 0.022 | Ki (BACE1 [1]; [4]): 0.0825 µM
53 | CC1(C)Oc2ccc(-c3cc(Cl)cnc3Cl)cc2C2(COC(N)=N2)C12COC2 (centres unmarked) [RP 152] | 0.688 | 0.11 | –
54 | Cc1cc(F)cc(-c2ccc3c(c2)C2(COC(N)=N2)C2(COC2)C(C)(C)O3)c1 (centres unmarked) [RP 148] | 0.614 | 0.48 | –
55 | COc1ccc(F)c(-c2ccc3c(c2)C2(COC(N)=N2)C2(COC2)C2(CCC2)O3)c1 (centres unmarked) [RP 136, 6′-(2-fluoro-5-methoxyphenyl)trispiro[cyclobutane-1,2′-chromene-4′,4″-[1,3]oxazole-3′,3′″-oxetan]-2″-amine] | 0.635 | 0.66 | –
56 | Cc1cccc(-c2ccc3c(c2)C2(COC(N)=N2)C2(COC2)C2(CCC2)O3)c1 (centres unmarked) [RP 127] | 2.27 | 1.8 | –
57 | COc1cccnc1Nc1ccc2c(c1)C1(COC(N)=N1)C1(COC1)CO2 (centres unmarked) [RP 26] | 3.75 | 0.069 | –
